Assay results published in US20190127366A1 (LifeSci Pharmaceuticals, Inc., priority 2015, published 2019).

Target: T1, human complement factor D (Homo sapiens, UniProt P00746)
T1 construct: purchased R&D Systems 1824-SE
Assay: In vitro enzyme inhibition (Z-Lys-SBzl/DTNB absorbance assay)
Type: biochemical
Conditions: Complement Factor D (R&D Systems), substrate Z-Lys-SBzl, A405 nm; read-out: CFD IC50
How it was run: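 Factor D (6.25 ng/μL before addition) preincubated 5 min RT with compound (8 points from 50 μM, 6-fold, 0.5% DMSO final) in 50 mM Tris/HCl pH 7.5, 1 M NaCl, then Z-Lys-SBzl/DTNB added (200 μM each before addition). A405 read kinetically every 30 s for 60 min; IC50 from variable-slope fit, controls with and without enzyme.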

T1 sequence (P00746 26-253): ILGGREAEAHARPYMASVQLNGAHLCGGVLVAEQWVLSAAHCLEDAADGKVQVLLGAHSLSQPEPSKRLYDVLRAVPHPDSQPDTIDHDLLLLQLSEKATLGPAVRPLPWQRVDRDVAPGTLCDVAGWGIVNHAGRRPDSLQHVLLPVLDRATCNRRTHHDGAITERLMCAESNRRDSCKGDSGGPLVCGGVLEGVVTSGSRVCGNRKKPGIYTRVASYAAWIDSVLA

Row | IC50 [µM] | SMILES
1 | > 10 | NC(=O)c1nn(CC(=O)N2CCNC[C@H]2C(=O)Nc2cccc(C(F)(F)F)n2)c2ccccc12 [Example 29, (S)-1-(2-oxo-2-(2-((6-(trifluoromethyl)pyridin-2-yl)carbamoyl)piperazin-1-yl)ethyl)-1H-indazole-3-carboxamide]
2 | 0.1 to 1 | NC(=O)c1ccc2c(c1)c(C(N)=O)nn2CC(=O)N1[C@@H]2CC[C@@H](C2)[C@H]1C(=O)Nc1cccc(Cl)n1 [Example 121, 1-(2-((1R,3S,4S)-3-((6-chloropyridin-2-yl)carbamoyl)-2-azabicyclo[2.2.1]heptan-2-yl)-2-oxoethyl)-1H-indazole-3,5-dicarboxamide]
3 | 1 to 10 | NC(=O)c1nn(CC(=O)N2[C@@H]3CC[C@@H](C3)[C@H]2C(=O)NCc2cccc(Cl)c2F)c2cc(CC(=O)O)ccc12 [Example 127, 2-(3-carbamoyl-1-(2-((1R,3S,4S)-3-((3-chloro-2-fluorobenzyl)carbamoyl)-2-azabicyclo[2.2.1]heptan-2-yl)-2-oxoethyl)-1H-indazol-6-yl)acetic acid]
4 | 0.1 to 1 | NC(=O)c1nn(CC(=O)N2[C@H](C(=O)Nc3cccc(Cl)n3)C[C@@H]3CCC[C@@H]32)c2ccc(C3CC3)cc12 [Example 162, 1-(2-((2S,3aS,6aS)-2-((6-chloropyridin-2-yl)carbamoyl)hexahydrocyclopenta[b]pyrrol-1(2H)-yl)-2-oxoethyl)-5-cyclopropyl-1H-indazole-3-carboxamide]
5 | 1 to 10 | NC(=O)c1nn(CC(=O)N2[C@@H]3CC[C@@H](C3)[C@H]2C(=O)Nc2cccc(Cl)n2)c2ccc([N+](=O)[O-])cc12 [Example 73, 1-(2-((1R,3S,4S)-3-((6-chloropyridin-2-yl)carbamoyl)-2-azabicyclo[2.2.1]heptan-2-yl)-2-oxoethyl)-5-nitro-1H-indazole-3-carboxamide]
6 | > 10 | NC(=O)c1nn(CC(=O)N2[C@@H]3CC[C@@H](C3)[C@H]2C(=O)NCc2ccc3[nH]cc(Cl)c3c2F)c2ccccc12 [Example 47, 1-(2-((1R,3S,4S)-3-(((3-chloro-4-fluoro-1H-indol-5-yl)methyl)carbamoyl)-2-azabicyclo[2.2.1]heptan-2-yl)-2-oxoethyl)-1H-indazole-3-carboxamide]
7 | 1 to 10 | NC(=O)c1nn(CC(=O)N2[C@@H]3CC[C@@H](C3)[C@H]2C(=O)Nc2cccc(F)n2)c2ccccc12 [Example 53, 1-(2-((1R,3S,4S)-3-((6-fluoropyridin-2-yl)carbamoyl)-2-azabicyclo[2.2.1]heptan-2-yl)-2-oxoethyl)-1H-indazole-3-carboxamide]
8 | > 10 | NC(=O)c1nn(CC(=O)N2[C@@H]3CC[C@@H](C3)[C@H]2C(=O)NCc2cnc3[nH]cc(Cl)c3c2)c2ccccc12 [Example 48, 1-(2-((1R,3S,4S)-3-(((3-chloro-1H-pyrrolo[2,3-b]pyridin-5-yl)methyl)carbamoyl)-2-azabicyclo[2.2.1]heptan-2-yl)-2-oxoethyl)-1H-indazole-3-carboxamide]
9 | 0.1 to 1 | NC(=O)c1nn(CC(=O)N2CCCCC[C@H]2C(=O)NCc2cccc(Cl)c2F)c2ccccc12 [Example 31, (S)-1-(2-(2-((3-chloro-2-fluorobenzyl)carbamoyl)azepan-1-yl)-2-oxoethyl)-1H-indazole-3-carboxamide]
10 | 1 to 10 | NC(=O)c1nn(CC(=O)N2C3CCC(C3)[C@H]2C(=O)Nc2cccc(C(F)(F)F)n2)c2ccccc12 (stereo partly drawn) [Example 13, 1-(2-oxo-2-((3S)-3-((6-(trifluoromethyl)pyridin-2-yl)carbamoyl)-2-azabicyclo[2.2.1]heptan-2-yl)ethyl)-1H-indazole-3-carboxamide]
11 | 0.1 to 1 | NC(=O)c1nn(CC(=O)N2[C@@H]3CC[C@@H](C3)[C@H]2C(=O)Nc2cccc(Cl)n2)c2ccc(N)cc12 [Example 75, 5-amino-1-(2-((1R,3S,4S)-3-((6-chloropyridin-2-yl)carbamoyl)-2-azabicyclo[2.2.1]heptan-2-yl)-2-oxoethyl)-1H-indazole-3-carboxamide]
12 | 1 to 10 | NC(=O)c1nn(CC(=O)N2[C@H](C(=O)NCc3cccc(Cl)n3)C[C@@H]3CCC[C@@H]32)c2ccccc12 [Example 160, 1-(2-((2S,3aS,6aS)-2-(((6-chloropyridin-2-yl)methyl)carbamoyl)hexahydrocyclopenta[b]pyrrol-1(2H)-yl)-2-oxoethyl)-1H-indazole-3-carboxamide]
13 | 1 to 10 | CN1CCN(C(=O)Cn2nc(C(N)=O)c3ccccc32)[C@H](C(=O)Nc2cccc(Cl)n2)C1 [Example 28, (S)-1-(2-(2-((6-chloropyridin-2-yl)carbamoyl)-4-methylpiperazin-1-yl)-2-oxoethyl)-1H-indazole-3-carboxamide]
14 | 1 to 10 | NC(=O)c1nn(CC(=O)N2[C@@H]3CC[C@@H](C3)[C@H]2C(=O)NCc2ccc(Cl)c(Cl)c2)c2ccccc12 [Example 72, 1-(2-((1R,3S,4S)-3-((3,4-dichlorobenzyl)carbamoyl)-2-azabicyclo[2.2.1]heptan-2-yl)-2-oxoethyl)-1H-indazole-3-carboxamide]
15 | 1 to 10 | NCCC(NC(=O)[C@@H]1[C@H]2CC[C@H](C2)N1C(=O)Cn1nc(C(N)=O)c2ccccc21)c1cccc(Cl)c1F (stereo partly drawn) [Example 145, 1-(2-((1R,3S,4S)-3-((3-amino-1-(3-chloro-2-fluorophenyl)propyl)carbamoyl)-2-azabicyclo[2.2.1]heptan-2-yl)-2-oxoethyl)-1H-indazole-3-carboxamide]
16 | 1 to 10 | COC(=O)c1ccc(Cl)c(F)c1CNC(=O)[C@@H]1[C@H]2CC[C@H](C2)N1C(=O)Cn1nc(C(N)=O)c2ccccc21 [Example 116, methyl 2-(((1R,3S,4S)-2-(2-(3-carbamoyl-1H-indazol-1-yl)acetyl)-2-azabicyclo[2.2.1]heptane-3-carboxamido)methyl)-4-chloro-3-fluorobenzoate]
17 | 1 to 10 | NC(=O)c1nn(CC(=O)N2CC3CC2(C(=O)Nc2cccc(Cl)n2)C3)c2ccccc12 [Example 151, 2-(2-(3-carbamoyl-1H-indazol-1-yl)acetyl)-N-(6-chloropyridin-2-yl)-2-azabicyclo[2.1.1]hexane-1-carboxamide]
18 | > 10 | CC(=O)N1CCCN(C(=O)Cn2nc(C(N)=O)c3ccccc32)C(C(=O)NCc2cccc(Cl)c2F)C1 (stereo not shown) [Example 34, 1-(2-(4-acetyl-2-((3-chloro-2-fluorobenzyl)carbamoyl)-1,4-diazepan-1-yl)-2-oxoethyl)-1H-indazole-3-carboxamide]
19 | 1 to 10 | NC(=O)c1nn(CC(=O)N2[C@H](C(=O)Nc3cncc(Cl)c3)C[C@@H]3CCC[C@@H]32)c2ccccc12 [Example 161, 1-(2-((2S,3aS,6aS)-2-((5-chloropyridin-3-yl)carbamoyl)hexahydrocyclopenta[b]pyrrol-1(2H)-yl)-2-oxoethyl)-1H-indazole-3-carboxamide]
20 | 1 to 10 | NC(=O)c1nn(CC(=O)N2[C@@H]3CC[C@@H](C3)[C@H]2C(=O)NC(C(=O)O)c2cccc(Cl)c2F)c2ccccc12 (stereo partly drawn) [Example 137, 2-((1R,3S,4S)-2-(2-(3-carbamoyl-1H-indazol-1-yl)acetyl)-2-azabicyclo[2.2.1]heptane-3-carboxamido)-2-(3-chloro-2-fluorophenyl)acetic acid]
21 | 0.1 to 1 | NC(=O)c1nn(CC(=O)N2[C@H](C(=O)Nc3cccc(Cl)n3)C[C@@H]3CCC[C@@H]32)c2cc(F)ccc12 [Example 172, 1-(2-((2S,3aS,6aS)-2-((6-chloropyridin-2-yl)carbamoyl)hexahydrocyclopenta[b]pyrrol-1(2H)-yl)-2-oxoethyl)-6-fluoro-1H-indazole-3-carboxamide 2,2,2-trifluoroacetate]
22 | 0.1 to 1 | NC(=O)c1nn(CC(=O)N2[C@H](C(=O)NCc3cccc(Cl)c3F)C[C@@H]3CCC[C@@H]32)c2ccc(F)cc12 [Example 166, 1-(2-((2S,3aS,6aS)-2-((3-chloro-2-fluorobenzyl)carbamoyl)hexahydrocyclopenta[b]pyrrol-1(2H)-yl)-2-oxoethyl)-5-fluoro-1H-indazole-3-carboxamide]
23 | 1 to 10 | NC(=O)c1nn(CC(=O)N2[C@@H]3CC[C@@H](C3)[C@H]2C(=O)NCc2cccc(Cl)c2F)c2ccc(CCO)cc12 [Example 132]
24 | > 10 | NC(=O)c1nn(CC(=O)N2CCC3CC32C(=O)NCc2cccc(Cl)c2F)c2ccccc12 (stereo not shown) [Example 147, 1-(2-(1-((3-chloro-2-fluorobenzyl)carbamoyl)-2-azabicyclo[3.1.0]hexan-2-yl)-2-oxoethyl)-1H-indazole-3-carboxamide]
25 | 1 to 10 | NC(=O)c1nn(CC(=O)N2[C@@H]3CC[C@@H](C3)[C@H]2C(=O)NCc2c(Br)ccc(Cl)c2F)c2ccccc12 [Example 115, 1-(2-((1R,3S,4S)-3-((6-bromo-3-chloro-2-fluorobenzyl)carbamoyl)-2-azabicyclo[2.2.1]heptan-2-yl)-2-oxoethyl)-1H-indazole-3-carboxamide]
26 | 1 to 10 | NC(=O)c1nn(CC(=O)N2[C@@H]3CC[C@@H](C3)[C@H]2C(=O)NC(CCO)c2cccc(Cl)c2F)c2ccccc12 (stereo partly drawn) [Example 146, 1-(2-((1R,3S,4S)-3-((1-(3-chloro-2-fluorophenyl)-3-hydroxypropyl)carbamoyl)-2-azabicyclo[2.2.1]heptan-2-yl)-2-oxoethyl)-1H-indazole-3-carboxamide]
27 | > 10 | NC(=O)c1nn(CC(=O)N2CCNC[C@H]2C(=O)Nc2cccc(Cl)n2)c2ccccc12 [Example 26, (S)-1-(2-(2-((6-chloropyridin-2-yl)carbamoyl)piperazin-1-yl)-2-oxoethyl)-1H-indazole-3-carboxamide]
28 | 0.1 to 1 | NC(=O)c1nn(CC(=O)N2CCCC[C@H]2C(=O)Nc2cccc(Br)n2)c2ccccc12 [Example 20, (S)-1-(2-(2-((6-bromopyridin-2-yl)carbamoyl)piperidin-1-yl)-2-oxoethyl)-1H-indazole-3-carboxamide]
